Reference: paper PMC11207571, “Applicability of MDR1 Overexpressing Abcb1KO-MDCKII Cell Lines for Investigating In Vitro Species Differences and Brain Penetration Prediction” (Pharmaceutics, 2024)

Columns and labels:
cynomolgus monkey Mdr1 [1] = biological target: T1, cynomolgus monkey Mdr1 (Macaca fascicularis, UniProt Q8HZQ6); test: Inhibition of 3H-digoxin or 3H-quinidine bidirectional transport in cyMDR1 cells; conditions: Inhibition of quinidine transport IC50±SD, cyMDR1, probe 3H-quinidine 0.1 µM, 60 min; IC50 from ER
rat Mdr1a [2] = biological target: T2, rat Mdr1a (Rattus norvegicus, UniProt Q6PSM0); test: Inhibition of 3H-digoxin or 3H-quinidine bidirectional transport in rMDR1 cells; type: cell-based; parameters: rat Mdr1a (NM_133401.1); expressed in transfected cells; host or cells: Abcb1KO-MDCKII (canine kidney, endogenous Abcb1 knocked out), transduced, single-cell clone; conditions: IC50 from ER
cynomolgus monkey Mdr1 [3] = biological target: T1, cynomolgus monkey Mdr1; test: cell-based
mouse Mdr1a [4] = biological target: T3, mouse Mdr1a (Mus musculus, UniProt P21447); test: Inhibition of 3H-digoxin or 3H-quinidine bidirectional transport in mMDR1 cells; type: cell-based; parameters: mouse Mdr1a (NM_011076.3); expressed in transfected cells; host or cells: Abcb1KO-MDCKII (canine kidney, endogenous Abcb1 knocked out), transduced, single-cell clone; conditions: IC50 from ER
mouse Mdr1a [5] = biological target: T3, mouse Mdr1a; test: Bidirectional transport assay, efflux ratio in Abcb1KO-MDCKII mMDR1 cells; conditions: mouse, pH 7.4
Method: (§1) Eluent A consisted of 0.1% formic acid in water, eluent B consisted of 0.1% formic acid in acetonitrile. Then, 10 µL samples were injected into the HPLC-MS/MS system. Mass spectrometric detection was performed in SRM mode, and ion transitions for each analyte were optimized during method development. Samples were analyzed in pools, with each pool containing three to four analytes.

cynomolgus monkey Mdr1 [6] = biological target: T1, cynomolgus monkey Mdr1; test: Bidirectional transport assay, efflux ratio in Abcb1KO-MDCKII cyMDR1 cells; conditions: cynomolgus monkey, pH 7.4
Method: as §1

[7] = Bidirectional transport assay, efflux ratio in Abcb1KO-MDCKII-Mock control cells; conditions: dog, MDCK, pH 7.4
Method: as §1

human MDR1 [8] = biological target: T4, human MDR1 (Homo sapiens, UniProt P08183); test: Inhibition of 3H-digoxin or 3H-quinidine bidirectional transport in hMDR1 cells; conditions: IC50 from ER
human MDR1 [9] = biological target: T4, human MDR1; test: Bidirectional transport assay, efflux ratio in Abcb1KO-MDCKII hMDR1 cells; conditions: for efflux ratio at 120 min, 1 µM: human, MDCK-MDR1, pH 7.4
Method: as §1

rat Mdr1a [10] = biological target: T2, rat Mdr1a; test: Bidirectional transport assay, efflux ratio in Abcb1KO-MDCKII rMDR1 cells; conditions: rat, pH 7.4
Method: as §1

human BCRP = biological target: T5, human BCRP (Homo sapiens, UniProt Q9UNQ0); test: Bidirectional transport assay, efflux ratio in MDCKII-BCRP cells; conditions: human, pH 7.4
T5 sequence (Q9UNQ0 1-655): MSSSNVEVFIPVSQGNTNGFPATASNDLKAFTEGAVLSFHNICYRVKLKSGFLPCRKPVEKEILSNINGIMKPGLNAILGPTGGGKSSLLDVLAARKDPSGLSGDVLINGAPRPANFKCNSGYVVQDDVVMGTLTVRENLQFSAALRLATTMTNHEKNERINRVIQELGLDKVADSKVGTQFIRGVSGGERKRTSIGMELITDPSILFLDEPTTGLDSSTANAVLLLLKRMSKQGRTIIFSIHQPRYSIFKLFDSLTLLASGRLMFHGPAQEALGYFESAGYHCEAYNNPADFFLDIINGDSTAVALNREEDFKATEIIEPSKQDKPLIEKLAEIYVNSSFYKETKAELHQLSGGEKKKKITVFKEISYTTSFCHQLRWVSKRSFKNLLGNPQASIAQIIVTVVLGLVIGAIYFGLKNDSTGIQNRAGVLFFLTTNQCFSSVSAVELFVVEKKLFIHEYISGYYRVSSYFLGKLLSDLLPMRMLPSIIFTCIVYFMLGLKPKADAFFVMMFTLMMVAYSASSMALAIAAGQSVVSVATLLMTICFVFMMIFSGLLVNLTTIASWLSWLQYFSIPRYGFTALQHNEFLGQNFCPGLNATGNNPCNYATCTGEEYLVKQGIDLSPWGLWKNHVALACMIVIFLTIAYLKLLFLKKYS
Method: as §1

hMDR1 and hBCRP = test: Brain permeability classification from total ER of hMDR1 and hBCRP against in vivo rodent Kp,uu,brain; conditions: total ER cut-off 3; in vivo rodent Kp,uu,brain cut-off 0.3
Method: MDR1 and/or BCRP substrate properties were investigated by binary classification analysis on CNS+ and CNS− compounds. […] True negative (TN), where there was no efflux and the CNS+ compound crossed the BBB. […] The sensitivity and specificity of the estimation of brain penetration along with MDR1 and BCRP activity were calculated from predictive performance metrics.
First, NET ER was calculated and used for human predictions, (2) NET ER=ER(−inh)[…]ER(+inh) where ER(−inh) is ER in the absence of inhibitor, and ER(+inh) is ER in the presence of inhibitor, for hMDR1 (ERMDR1) or hBCRP (ERBCRP).
To identify the correlation between the in vivo rodent Kp,uu,brain and ERs, 58 compounds with known Kp,uu,brain were selected. An ER of 2 was used as a cut-off to classify MDR1 substrates and a Kp,uu,brain of 0.3 was used as a threshold for CNS penetrant compounds. The resulting graphs are thus divided into four quadrants. Brain penetration (Kp,uu,brain) was used as the logical value true condition, with compounds having Kp,uu,brain ≤ 0.3 considered positive. Q2 and Q3 comprise molecules with impaired brain penetration. […] Molecules in Q4 (true negatives, TN) can freely access the brain (Figure 2). Predictive performance metrics were calculated to show the efficacy of the established cell lines in BBB permeability classification (Table 1). Sensitivity refers to the ability of the model to correctly classify CNS-restricted molecules based on MDR1 substrate nature.
Subsequently, for a more reliable prediction of brain penetration, data generated in the hBCRP cell line were included in the analysis. hBCRP assay conditions and evaluations were identical to that of MDR1 cell lines, which allowed proper comparisons (Figure 2E,F). Total ER was calculated by combining ERs determined in BCRP and hMDR1 cell lines based on Equation (3), with an ER cut-off of 3. […] Eventually, total ERs were also assessed with the Relative Expression Factor (REF) (Equation (4); Figure 2E,F). REF is an in vitro and in vivo correlation scaler, calculated from transporter protein abundances in brain microvessels versus overexpressing cell lines.

[11] = Inhibition of digoxin transport IC50±SD, rMDR1, probe 3H-digoxin 1 µM, 120 min
[12] = Inhibition of quinidine transport IC50±SD, rMDR1, probe 3H-quinidine 1 µM, 30 min
[13] = Inhibition of digoxin transport IC50±SD, mMDR1, probe 3H-digoxin 1 µM, 120 min
[14] = Inhibition of quinidine transport IC50±SD, mMDR1, probe 3H-quinidine 1 µM, 60 min
[15] = Inhibition of digoxin transport IC50±SD, hMDR1, probe 3H-digoxin 1 µM, 120 min
[16] = Inhibition of quinidine transport IC50±SD, hMDR1, probe 3H-quinidine 1 µM, 60 min

T1 sequence (Q8HZQ6 1-1283): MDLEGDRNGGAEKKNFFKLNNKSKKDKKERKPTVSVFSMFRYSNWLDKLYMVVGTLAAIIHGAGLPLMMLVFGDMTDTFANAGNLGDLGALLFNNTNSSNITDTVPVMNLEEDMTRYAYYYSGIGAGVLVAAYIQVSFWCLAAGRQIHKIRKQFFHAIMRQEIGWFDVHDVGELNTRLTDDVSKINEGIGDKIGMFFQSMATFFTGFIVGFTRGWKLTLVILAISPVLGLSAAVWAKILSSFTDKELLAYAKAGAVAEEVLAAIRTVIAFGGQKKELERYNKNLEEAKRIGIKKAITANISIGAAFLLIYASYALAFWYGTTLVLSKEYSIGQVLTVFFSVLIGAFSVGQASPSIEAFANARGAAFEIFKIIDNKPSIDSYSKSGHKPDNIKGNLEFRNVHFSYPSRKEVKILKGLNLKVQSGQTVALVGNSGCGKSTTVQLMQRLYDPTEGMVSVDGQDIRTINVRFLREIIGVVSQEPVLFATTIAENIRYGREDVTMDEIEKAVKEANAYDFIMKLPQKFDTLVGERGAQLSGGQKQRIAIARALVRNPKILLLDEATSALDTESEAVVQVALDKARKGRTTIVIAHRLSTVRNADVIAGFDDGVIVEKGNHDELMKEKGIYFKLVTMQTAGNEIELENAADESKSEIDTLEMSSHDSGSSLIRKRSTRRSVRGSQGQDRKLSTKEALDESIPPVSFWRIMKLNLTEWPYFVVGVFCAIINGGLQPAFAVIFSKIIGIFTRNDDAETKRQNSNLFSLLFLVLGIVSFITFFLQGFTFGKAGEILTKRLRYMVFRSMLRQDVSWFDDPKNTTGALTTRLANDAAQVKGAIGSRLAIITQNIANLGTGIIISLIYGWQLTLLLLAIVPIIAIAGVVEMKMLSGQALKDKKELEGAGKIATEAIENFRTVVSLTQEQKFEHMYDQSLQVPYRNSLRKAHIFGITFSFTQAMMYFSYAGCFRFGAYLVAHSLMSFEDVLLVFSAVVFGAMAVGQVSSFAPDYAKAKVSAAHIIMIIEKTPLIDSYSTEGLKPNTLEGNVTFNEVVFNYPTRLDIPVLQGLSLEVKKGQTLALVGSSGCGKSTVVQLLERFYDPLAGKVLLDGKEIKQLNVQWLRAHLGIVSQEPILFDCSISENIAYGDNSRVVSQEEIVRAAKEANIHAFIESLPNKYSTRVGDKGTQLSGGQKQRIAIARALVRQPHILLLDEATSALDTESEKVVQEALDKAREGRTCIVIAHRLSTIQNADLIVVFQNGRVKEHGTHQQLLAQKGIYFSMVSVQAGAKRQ
T2 sequence (Q6PSM0 1-1272): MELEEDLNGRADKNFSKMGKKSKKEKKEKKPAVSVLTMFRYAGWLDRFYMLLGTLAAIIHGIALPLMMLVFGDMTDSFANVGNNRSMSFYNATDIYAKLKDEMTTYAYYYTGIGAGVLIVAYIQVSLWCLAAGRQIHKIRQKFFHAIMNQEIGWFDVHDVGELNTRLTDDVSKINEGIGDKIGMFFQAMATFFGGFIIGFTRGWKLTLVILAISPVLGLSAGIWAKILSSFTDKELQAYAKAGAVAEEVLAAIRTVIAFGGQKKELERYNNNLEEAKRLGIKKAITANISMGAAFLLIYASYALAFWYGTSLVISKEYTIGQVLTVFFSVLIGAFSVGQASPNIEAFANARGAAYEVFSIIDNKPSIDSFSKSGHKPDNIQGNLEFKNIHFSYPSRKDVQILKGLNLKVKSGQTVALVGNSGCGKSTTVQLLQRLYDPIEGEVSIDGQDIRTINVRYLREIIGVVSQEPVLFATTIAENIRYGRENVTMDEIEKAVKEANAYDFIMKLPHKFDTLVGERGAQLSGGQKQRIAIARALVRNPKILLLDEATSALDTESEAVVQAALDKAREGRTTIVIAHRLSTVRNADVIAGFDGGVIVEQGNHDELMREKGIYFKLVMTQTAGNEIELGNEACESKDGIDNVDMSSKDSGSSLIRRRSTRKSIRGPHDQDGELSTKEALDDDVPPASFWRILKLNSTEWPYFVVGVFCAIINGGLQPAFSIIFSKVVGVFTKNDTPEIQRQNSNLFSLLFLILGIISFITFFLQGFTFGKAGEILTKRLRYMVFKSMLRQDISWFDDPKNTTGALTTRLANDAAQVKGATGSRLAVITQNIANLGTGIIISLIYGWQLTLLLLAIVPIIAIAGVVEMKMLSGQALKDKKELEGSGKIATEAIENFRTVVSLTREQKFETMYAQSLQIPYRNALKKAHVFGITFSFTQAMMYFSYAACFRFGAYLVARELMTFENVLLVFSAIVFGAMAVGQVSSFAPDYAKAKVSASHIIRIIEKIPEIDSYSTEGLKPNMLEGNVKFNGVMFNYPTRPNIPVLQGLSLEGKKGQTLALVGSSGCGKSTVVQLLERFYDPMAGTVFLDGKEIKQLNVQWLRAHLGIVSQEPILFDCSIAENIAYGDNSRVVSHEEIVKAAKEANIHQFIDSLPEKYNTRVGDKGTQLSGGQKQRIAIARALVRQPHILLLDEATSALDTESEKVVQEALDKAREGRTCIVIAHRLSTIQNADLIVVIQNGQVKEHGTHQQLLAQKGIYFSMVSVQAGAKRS
T3 sequence (P21447 whole entry): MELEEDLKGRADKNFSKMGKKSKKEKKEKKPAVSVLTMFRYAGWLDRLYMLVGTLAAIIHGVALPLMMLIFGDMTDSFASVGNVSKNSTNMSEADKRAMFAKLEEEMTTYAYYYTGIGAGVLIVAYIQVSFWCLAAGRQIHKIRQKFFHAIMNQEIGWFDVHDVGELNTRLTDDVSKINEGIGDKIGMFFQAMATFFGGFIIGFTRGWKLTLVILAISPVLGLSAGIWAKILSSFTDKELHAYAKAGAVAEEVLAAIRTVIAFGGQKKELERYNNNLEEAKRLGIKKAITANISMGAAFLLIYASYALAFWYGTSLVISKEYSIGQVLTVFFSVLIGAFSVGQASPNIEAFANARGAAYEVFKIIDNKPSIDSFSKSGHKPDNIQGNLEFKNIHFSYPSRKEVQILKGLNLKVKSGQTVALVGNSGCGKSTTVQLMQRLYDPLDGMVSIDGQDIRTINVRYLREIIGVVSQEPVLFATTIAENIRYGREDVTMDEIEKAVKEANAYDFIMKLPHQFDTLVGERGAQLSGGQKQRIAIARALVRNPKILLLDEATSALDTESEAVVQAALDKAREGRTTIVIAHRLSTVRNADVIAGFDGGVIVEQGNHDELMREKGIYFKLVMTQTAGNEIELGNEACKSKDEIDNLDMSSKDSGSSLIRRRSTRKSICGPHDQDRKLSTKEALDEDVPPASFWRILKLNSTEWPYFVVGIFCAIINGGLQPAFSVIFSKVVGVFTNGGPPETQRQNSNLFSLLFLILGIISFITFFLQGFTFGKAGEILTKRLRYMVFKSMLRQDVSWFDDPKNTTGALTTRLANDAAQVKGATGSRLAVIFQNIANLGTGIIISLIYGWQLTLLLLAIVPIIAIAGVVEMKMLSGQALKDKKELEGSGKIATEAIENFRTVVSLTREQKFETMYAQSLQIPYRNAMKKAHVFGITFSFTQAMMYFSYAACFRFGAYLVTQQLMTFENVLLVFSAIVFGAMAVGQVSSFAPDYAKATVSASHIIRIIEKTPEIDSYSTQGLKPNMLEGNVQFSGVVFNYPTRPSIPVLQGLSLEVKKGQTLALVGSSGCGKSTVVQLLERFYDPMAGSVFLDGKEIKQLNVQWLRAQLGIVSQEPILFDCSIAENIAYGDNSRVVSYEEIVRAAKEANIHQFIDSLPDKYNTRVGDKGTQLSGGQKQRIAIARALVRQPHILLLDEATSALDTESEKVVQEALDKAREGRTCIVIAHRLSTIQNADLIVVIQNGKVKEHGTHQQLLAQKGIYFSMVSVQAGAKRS
T4 sequence (P08183 whole entry): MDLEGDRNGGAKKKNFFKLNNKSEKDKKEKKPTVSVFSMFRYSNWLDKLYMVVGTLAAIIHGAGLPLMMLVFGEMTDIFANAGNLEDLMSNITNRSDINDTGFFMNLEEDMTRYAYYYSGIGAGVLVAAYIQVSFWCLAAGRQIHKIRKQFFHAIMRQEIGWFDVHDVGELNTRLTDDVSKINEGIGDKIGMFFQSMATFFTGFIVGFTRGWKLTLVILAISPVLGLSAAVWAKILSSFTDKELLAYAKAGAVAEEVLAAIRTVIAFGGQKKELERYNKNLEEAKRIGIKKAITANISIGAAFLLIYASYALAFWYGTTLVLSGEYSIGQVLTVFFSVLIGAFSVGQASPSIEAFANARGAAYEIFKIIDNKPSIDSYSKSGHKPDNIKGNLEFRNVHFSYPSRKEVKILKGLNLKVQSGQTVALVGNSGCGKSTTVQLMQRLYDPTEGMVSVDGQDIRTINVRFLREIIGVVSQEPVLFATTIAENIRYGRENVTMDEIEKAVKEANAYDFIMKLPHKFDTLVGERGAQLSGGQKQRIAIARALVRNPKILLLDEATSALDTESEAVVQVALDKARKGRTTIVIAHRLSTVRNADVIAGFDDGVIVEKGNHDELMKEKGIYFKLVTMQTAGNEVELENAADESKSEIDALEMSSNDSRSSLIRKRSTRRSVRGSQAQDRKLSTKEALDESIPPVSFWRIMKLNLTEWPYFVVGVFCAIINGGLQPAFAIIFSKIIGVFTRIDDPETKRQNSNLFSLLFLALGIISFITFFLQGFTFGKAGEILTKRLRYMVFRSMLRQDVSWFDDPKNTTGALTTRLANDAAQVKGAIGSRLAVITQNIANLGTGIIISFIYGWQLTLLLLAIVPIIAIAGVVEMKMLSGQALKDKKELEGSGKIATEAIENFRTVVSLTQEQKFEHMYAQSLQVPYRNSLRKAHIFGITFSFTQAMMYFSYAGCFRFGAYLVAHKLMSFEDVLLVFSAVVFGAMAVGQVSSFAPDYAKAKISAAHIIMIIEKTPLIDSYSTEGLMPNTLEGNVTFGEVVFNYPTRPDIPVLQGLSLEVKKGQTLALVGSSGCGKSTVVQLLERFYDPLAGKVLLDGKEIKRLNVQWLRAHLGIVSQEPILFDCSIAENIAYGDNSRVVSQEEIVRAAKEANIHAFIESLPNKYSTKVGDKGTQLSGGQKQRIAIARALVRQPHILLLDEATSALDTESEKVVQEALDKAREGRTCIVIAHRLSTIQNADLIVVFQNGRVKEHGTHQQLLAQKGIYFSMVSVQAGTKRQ

COc1cc2c(cc1OC)CN(CCc1ccc(NC(=O)c3cccc4c(=O)c5cccc(OC)c5[nH]c34)cc1)CC2 [Elacridar]
IC50 (cynomolgus monkey Mdr1 [1]): 110 ± 80 nM | IC50 (rat Mdr1a [2]; [11]): 320 ± 150 nM | IC50 (rat Mdr1a [2]; [12]): 60 nM | IC50 (cynomolgus monkey Mdr1 [3]): 90 ± 30 nM | IC50 (mouse Mdr1a [4]; [13]): 100 ± 70 nM | IC50 (mouse Mdr1a [4]; [14]): 200 ± 40 nM

O[C@@H](COc1cccc2ncccc12)CN1CCN([C@@H]2c3ccccc3[C@@H]3[C@H](c4ccccc42)C3(F)F)CC1 [Zosuquidar]
IC50 (cynomolgus monkey Mdr1 [1]): 120 ± 90 nM | IC50 (rat Mdr1a [2]; [11]): 600 ± 290 nM | IC50 (rat Mdr1a [2]; [12]): 570 ± 210 nM | IC50 (cynomolgus monkey Mdr1 [3]): 50 ± 20 nM | IC50 (mouse Mdr1a [4]; [13]): 370 ± 130 nM | IC50 (mouse Mdr1a [4]; [14]): 490 ± 260 nM

COc1ccccc1OCCNCC(O)COc1cccc2[nH]c3ccccc3c12 (centres unmarked) [Carvedilol]
efflux ratio at 120 min, 1 µM (mouse Mdr1a [5]): 1.94 ± 0.21 | IC50 (cynomolgus monkey Mdr1 [1]): 1020 ± 790 nM | IC50 (rat Mdr1a [2]; [11]): 4220 ± 1000 nM | IC50 (rat Mdr1a [2]; [12]): 1010 ± 130 nM | IC50 (cynomolgus monkey Mdr1 [3]): 1550 ± 590 nM | efflux ratio at 120 min, 1 µM (cynomolgus monkey Mdr1 [6]): 1.12 ± 0.06 | efflux ratio at 120 min, 1 µM [7]: 0.62 ± 0.04 | IC50 (human MDR1 [8]; [15]): 19100 ± 7450 nM | IC50 (human MDR1 [8]; [16]): 410 ± 240 nM | efflux ratio at 120 min, 1 µM (human MDR1 [9]): 14.5 ± 0.62 | efflux ratio at 120 min, 1 µM (rat Mdr1a [10]): 2.13 ± 0.08 | IC50 (mouse Mdr1a [4]; [13]): 2000 ± 550 nM | IC50 (mouse Mdr1a [4]; [14]): 1640 ± 900 nM | efflux ratio at 120 min, 1 µM (human BCRP): 2.38 ± 0.23

OC[C@@H](O)[C@@H](O)[C@H](O)[C@H](O)CO [Mannitol]
efflux ratio at 120 min, 1 µM (mouse Mdr1a [5]): 1.04 ± 0.16 | CNS penetration classification based on total ER (hMDR1 + hBCRP) (hMDR1 and hBCRP): false negatives | efflux ratio at 120 min, 1 µM (cynomolgus monkey Mdr1 [6]): 0.76 ± 0.1 | efflux ratio at 120 min, 1 µM [7]: 0.96 ± 0.12 | efflux ratio at 120 min, 1 µM (human MDR1 [9]): 0.87 ± 0.14 | efflux ratio at 120 min, 1 µM (rat Mdr1a [10]): 0.89 ± 0.12 | efflux ratio at 120 min, 1 µM (human BCRP): 0.73 ± 0.2

COc1ccc2c(c1)c(CC(=O)O)c(C)n2C(=O)c1ccc(Cl)cc1 [Indomethacin]
efflux ratio at 120 min, 1 µM (mouse Mdr1a [5]): 0.39 ± 0.02 | CNS penetration classification based on total ER (hMDR1 + hBCRP) (hMDR1 and hBCRP): true positives | efflux ratio at 120 min, 1 µM (cynomolgus monkey Mdr1 [6]): 0.4 ± 0.03 | efflux ratio at 120 min, 1 µM [7]: 0.37 ± 0.07 | CNS penetration classification based on hMDR1 ER alone (human MDR1 [9]; ER cut-off 2, in vivo rodent Kp,uu,brain cut-off 0.3): false negatives | efflux ratio at 120 min, 1 µM (human MDR1 [9]): 0.42 ± 0.05 | efflux ratio at 120 min, 1 µM (rat Mdr1a [10]): 0.4 ± 0.01 | efflux ratio at 120 min, 1 µM (human BCRP): 10.2 ± 0.71

CCCc1nc2c(C)cc(-c3nc4ccccc4n3C)cc2n1Cc1ccc(-c2ccccc2C(=O)O)cc1 [Telmisartan]
efflux ratio at 120 min, 1 µM (mouse Mdr1a [5]): 2.2 ± 0.27 | IC50 (cynomolgus monkey Mdr1 [1]): 1550 ± 530 nM | IC50 (rat Mdr1a [2]; [11]): 11600 ± 3910 nM | IC50 (rat Mdr1a [2]; [12]): 2720 ± 1260 nM | IC50 (cynomolgus monkey Mdr1 [3]): 4060 ± 1690 nM | efflux ratio at 120 min, 1 µM (cynomolgus monkey Mdr1 [6]): 3.18 ± 0.63 | efflux ratio at 120 min, 1 µM [7]: 0.38 ± 0.06 | IC50 (human MDR1 [8]; [15]): 15200 ± 5660 nM | IC50 (human MDR1 [8]; [16]): 1810 ± 870 nM | efflux ratio at 120 min, 1 µM (rat Mdr1a [10]): 2.65 ± 0.75 | IC50 (mouse Mdr1a [4]; [13]): 2600 ± 1590 nM | IC50 (mouse Mdr1a [4]; [14]): 2280 ± 970 nM | efflux ratio at 120 min, 1 µM (human BCRP): 12.2 ± 0.95

CCOC(=O)C1=C(C)NC(C)=C(C(=O)OC)C1c1cccc(Cl)c1Cl (centres unmarked) [Felodipine]
IC50 (cynomolgus monkey Mdr1 [1]): 50700 ± 19700 nM | IC50 (rat Mdr1a [2]; [11]): > 100000 nM | IC50 (rat Mdr1a [2]; [12]): 40600 ± 7710 nM | IC50 (cynomolgus monkey Mdr1 [3]): 12400 ± 5740 nM | IC50 (mouse Mdr1a [4]; [13]): 28600 ± 7950 nM | IC50 (mouse Mdr1a [4]; [14]): > 100000 nM

CCOC(=O)C1=C(C)NC(C)=C(C(=O)OC)C1c1cccc([N+](=O)[O-])c1 (centres unmarked) [Nitrendipine]
IC50 (cynomolgus monkey Mdr1 [1]): 17500 ± 4960 nM | IC50 (rat Mdr1a [2]; [11]): 4020 ± 1640 nM | IC50 (rat Mdr1a [2]; [12]): 6340 ± 2680 nM | IC50 (cynomolgus monkey Mdr1 [3]): 3150 ± 1700 nM | IC50 (human MDR1 [8]; [15]): > 50000 nM | IC50 (human MDR1 [8]; [16]): > 50000 nM | IC50 (mouse Mdr1a [4]; [13]): > 50000 nM | IC50 (mouse Mdr1a [4]; [14]): 15700 ± 5680 nM
